From US20240174622A1, “COMPOUND AND RADIOACTIVE LABELING COMPOUND” (NIHON MEDI-PHYSICS CO., LTD., priority 2021, published 2024)
Where “and” joins values, the source holds several entries; their conditions need not be identical. Equal values may be shown once.

Assays:
[1] = test system: LNCaP tumor-transplanted mouse; experiment: Internal radioactivity distribution using LNCaP tumor-transplanted mouse; assay type: in vivo
Summary of the method: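 Male SCID mice bearing subcutaneous LNCaP or PC-3 xenografts (40–60 days) received the 111In-labelled compound i.v. via tail vein (185–259 kBq in saline; n=2–3). Blood and organs collected at 1 to 192 hours post-dose, weighed and counted. Uptake expressed as %ID/g.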

[2] = target: T1, plasma albumin (mouse plasma) (Mus musculus, UniProt P07724); experiment: Evaluation of binding to albumin (mouse plasma); conditions: mouse plasma
T1 construct: from tissue; host or cells: mouse plasma
Method: A PBS solution (37 kBq, 50 μL) of [^111In]In-PSMA-DA1 or [^111In]In-PSMA-DB was added to 200 μL of PBS, mouse plasma, human plasma, or a human serum albumin (HSA) solution (45 mg/mL) in PBS, respectively, and the mixtures were allowed to stand at 37° C. for 10 minutes. Thereafter, the reaction liquids were added to a spin column ([…]; manufactured by Cytiva), and centrifuged at 1500×g at 4° C. for 2 minutes. After separation, the radioactivity for each of the column and the eluate was measured with a gamma counter.
When a compound to be evaluated binds to albumin to form a composite, the compound passes through the column because of the increased molecular size.
As in Example 1-1 described above, PBS, mouse plasma, human plasma, and human albumin were used to evaluate binding to albumin. Evaluation was carried out by the same experimental procedure and statistical method as in Example 1-1, except that a PBS solution (37 kBq, 50 μL) of [^111In]In-PtDA was used.
Thereafter, the reaction liquid was added to a spin column (Sephadex G-50; manufactured by Cytiva), and centrifuged at 1500×g at 4° C. for 2 minutes. After separation, the radioactivity of the column and the eluate was measured with a gamma counter.

T1 sequence (P07724 25-608): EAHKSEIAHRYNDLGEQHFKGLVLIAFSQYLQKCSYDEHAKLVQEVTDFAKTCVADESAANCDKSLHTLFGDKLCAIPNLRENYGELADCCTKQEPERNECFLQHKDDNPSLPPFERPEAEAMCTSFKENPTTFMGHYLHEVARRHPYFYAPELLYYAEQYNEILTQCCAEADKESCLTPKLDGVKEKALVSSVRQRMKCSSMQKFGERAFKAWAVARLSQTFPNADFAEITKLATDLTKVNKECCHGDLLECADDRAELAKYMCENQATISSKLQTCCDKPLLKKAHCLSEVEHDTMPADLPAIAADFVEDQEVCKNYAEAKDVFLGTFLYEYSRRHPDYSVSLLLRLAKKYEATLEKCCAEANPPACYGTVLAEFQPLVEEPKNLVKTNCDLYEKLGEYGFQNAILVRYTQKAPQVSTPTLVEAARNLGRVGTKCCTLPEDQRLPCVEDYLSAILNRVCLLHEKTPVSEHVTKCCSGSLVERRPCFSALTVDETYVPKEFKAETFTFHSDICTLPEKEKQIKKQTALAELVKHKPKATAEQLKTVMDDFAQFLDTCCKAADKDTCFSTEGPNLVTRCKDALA

Blood ([1]; 1 h after administration): 19.8 ± 2.74 % ID/g
Brain ([1]; 1 h after administration): 0.36 ± 0.05 % ID/g
Heart ([1]; 1 h after administration): 5.49 ± 0.77 % ID/g
Intestine ([1]; 1 h after administration): 2.66 ± 0.28 % ID/g
Kidney ([1]; 1 h after administration): 37.2 % ID/g and 37.2 ± 6.85 % ID/g
LNCaP Tumor ([1]; 1 h after administration): 2.18 ± 0.17 % ID/g
Liver ([1]; 1 h after administration): 3.51 ± 0.38 % ID/g
Lung ([1]; 1 h after administration): 11.9 ± 1.57 % ID/g
Muscle ([1]; 1 h after administration): 1.95 ± 0.30 % ID/g
Pancreas ([1]; 1 h after administration): 2.31 ± 0.14 % ID/g
Spleen ([1]; 1 h after administration): 15.3 ± 4.89 % ID/g
Stomach (% ID) ([1]; 1 h after administration): 0.79 ± 0.19 % ID
Blood ([1]; 24 h after administration): 12.5 ± 1.47 % ID/g
Brain ([1]; 24 h after administration): 0.30 ± 0.05 % ID/g
Heart ([1]; 24 h after administration): 3.95 ± 0.87 % ID/g
Intestine ([1]; 24 h after administration): 1.52 ± 0.41 % ID/g
Kidney ([1]; 24 h after administration): 68.0 ± 2.82 % ID/g
LNCaP Tumor ([1]; 24 h after administration): 16.0 % ID/g and 16.0 ± 9.49 % ID/g
Liver ([1]; 24 h after administration): 3.36 ± 0.77 % ID/g
Lung ([1]; 24 h after administration): 8.63 ± 1.31 % ID/g
Muscle ([1]; 24 h after administration): 1.28 ± 0.34 % ID/g
Pancreas ([1]; 24 h after administration): 2.03 ± 0.48 % ID/g
Spleen ([1]; 24 h after administration): 9.69 ± 0.92 % ID/g
Stomach (% ID) ([1]; 24 h after administration): 0.46 ± 0.23 % ID
Blood ([1]; 48 h after administration): 6.33 ± 1.53 % ID/g
Brain ([1]; 48 h after administration): 0.20 ± 0.07 % ID/g
Heart ([1]; 48 h after administration): 1.98 ± 0.41 % ID/g
Intestine ([1]; 48 h after administration): 0.74 ± 0.28 % ID/g
Kidney ([1]; 48 h after administration): 55.9 ± 6.39 % ID/g
LNCaP Tumor ([1]; 48 h after administration): 18.7 % ID/g and 18.7 ± 5.21 % ID/g
Liver ([1]; 48 h after administration): 2.28 ± 0.75 % ID/g
Lung ([1]; 48 h after administration): 6.16 ± 1.56 % ID/g
Muscle ([1]; 48 h after administration): 0.81 ± 0.40 % ID/g
Pancreas ([1]; 48 h after administration): 1.12 ± 0.39 % ID/g
Spleen ([1]; 48 h after administration): 10.5 ± 5.62 % ID/g
Stomach (% ID) ([1]; 48 h after administration): 0.29 ± 0.20 % ID
radioactivity in the eluate [2]: 67.2%
Structure (SMILES): O=C([O-])CN1CCN(C(CCC(=O)NCCC(=O)N2Cc3ccccc3-c3c(nnn3CCOCCOCCOCCOCCC(=O)NCCCC[C@H](NC(=O)N[C@@H](CCC(=O)O)C(=O)O)C(=O)O)-c3ccccc32)C(=O)[O-])CCN(CC(=O)[O-])CCN(C(CCC(=O)N[C@@H](CCCCNC(=O)CCCc2ccc(I)cc2)C(=O)O)C(=O)[O-])CC1.[111In+3] (stereo partly shown) [[^111In]In-PtDA]
